Test results from publication PMC9921564, “Novel Indole-Containing Hybrids Derived from Millepachine: Synthesis, Biological Evaluation and Antitumor Mechanism Study” (Molecules, 2023).

Experiments:
[1] = system: MCF-7 (human breast carcinoma cell line); experiment: CCK-8 antiproliferative assay, MCF-7; type: cell-based; conditions: MCF7, 48 h, read-out: IC50, Mean ± SE, MCF-7
[2] = system: Caski (human epithelial cervical cancer cell line); experiment: CCK-8 antiproliferative assay, Caski; type: cell-based; conditions: Ca-Ski, 48 h, read-out: IC50, Mean ± SE, Caski
[3] = system: HepG2 (human liver carcinoma cell line); experiment: CCK-8 antiproliferative assay, HepG2; type: cell-based; conditions: 48 h, read-out: IC50, Mean ± SE, HepG2
[4] = system: A549 (human non-small-cell-lung cancer cell line); experiment: CCK-8 antiproliferative assay, A549; type: cell-based; conditions: 48 h, read-out: IC50, Mean ± SE, A549
[5] = system: C42B (human prostate cancer line); experiment: CCK-8 antiproliferative assay, C42B; type: cell-based; conditions: 48 h, read-out: IC50, Mean ± SE, C42B
[6] = metabolic stability in human liver microsomes; type: in vitro ADME; conditions: for Remaining%: 37 °C, NADPH regenerating system
Description: Metabolic stability is one of the most important properties in drug development. In this study, commercially available human liver microsomes were used to evaluate the metabolic stability of compound 14b. After incubation with human liver microsomes at 37 °C in vitro for an indicated time in a buffer solution containing a NADPH regenerating system, the residue of 14b was monitored by HPLC. CA-4 was used as the reference compound. […] As well known, a short half-life means a low bioavailability in vivo and is required for frequent administration with a high dose, which might result in drug accumulation and may produce related toxicity.

[7] = system: five kinds of human cancer cell lines (A549, Caski, HepG2, C42B, MCF-7); experiment: CCK-8 assay, panel of five human cancer cell lines; type: cell-based; conditions: 48 h, read-out: IC50 values, range over five human cancer cell lines

Row | SMILES | IC50 [1] | IC50 [2] | IC50 [3] | IC50 [4] | IC50 [5] | t1/2 [6] | Remaining% ([6]; 30 min) | Remaining% ([6]; 60 min) | Remaining% ([6]; 90 min) | Remaining% ([6]; 120 min) | IC50 [7]
1 | COc1ccc(C(=O)c2cccc3c2ccn3C)c2c1C=CC(C)(C)O2 [11b, (5-methoxy-2,2-dimethyl-2H-chromen-8-yl)(1-methyl-1H-indol-4-yl)methanone] | 651 ± 24 nM | 516 ± 12 nM | 454 ± 21 nM | 208 ± 9 nM | 455 ± 15 nM |  |  |  |  |  | 
2 | COc1ccc(C(=O)c2ccc3[nH]ccc3c2)c2c1C=CC(C)(C)O2 [14a, (1H-indol-5-yl)(5-methoxy-2,2-dimethyl-2H-chromen-8-yl)methanone] | 82 ± 11 nM | 86 ± 9 nM | 142 ± 14 nM | 72 ± 4 nM | 89 ± 21 nM |  |  |  |  |  | 
3 | COc1cc(C(=O)c2cccc3[nH]ccc23)cc2c1OC(C)(C)C=C2 [19a, (1H-indol-4-yl)(8-methoxy-2,2-dimethyl-2H-chromen-6-yl)methanone] | 1775 ± 4 nM | 2311 ± 19 nM | 3098 ± 21 nM | 1320 ± 16 nM | 2410 ± 42 nM |  |  |  |  |  | 
4 | COc1ccc(/C=C\c2cc(OC)c(OC)c(OC)c2)cc1O [CA-4, reference compound] |  |  |  |  |  | < 1 h | 70.2% | 28.3% | 20.5% | 18.7% | 
5 | COc1ccc(C(=O)c2ccc(OC)c3c2OC(C)(C)C=C3)cc1 [Compd. A, reference compound] | 456 ± 21 nM | 892 ± 24 nM | 758 ± 17 nM | 226 ± 35 nM | 526 ± 7 nM |  |  |  |  |  | 226 to 892 nM
6 | COc1ccc(/C=C/C(=O)c2ccc(OC)c3c2OC(C)(C)C=C3)cc1 [Millepachine] | 4530 ± 338 nM | 6710 ± 233 nM | 3880 ± 244 nM | 2570 ± 131 nM | 3180 ± 384 nM |  |  |  |  |  | 2570 to 6710 nM
7 | COc1cc(C(=O)/C=C/c2c[nH]c3ccccc23)cc2c1OC(C)(C)C=C2 [compound 5a, (E)-3-(1H-indol-3-yl)-1-(8-methoxy-2,2-dimethyl-2H-chromen-6-yl)prop-2-en-1-one] | 1553 ± 14 nM | 1930 ± 35 nM | 963 ± 32 nM | 812 ± 22 nM | 1380 ± 21 nM |  |  |  |  |  | 
8 | COc1ccc(C(=O)c2cccc3[nH]ccc23)c2c1C=CC(C)(C)O2 [compound 11a, (1H-indol-4-yl)(5-methoxy-2,2-dimethyl-2H-chromen-8-yl)methanone] | 816 ± 45 nM | 832 ± 11 nM | 998 ± 34 nM | 631 ± 18 nM | 911 ± 34 nM |  |  |  |  |  | 

Continued, in another order:

Row | IC50 [1] | IC50 [2] | IC50 [3] | IC50 [4] | IC50 [5] | SMILES | t1/2 [6] | Remaining% ([6]; 30 min) | Remaining% ([6]; 60 min) | Remaining% ([6]; 90 min) | Remaining% ([6]; 120 min) | IC50 [7]
9 | 350 ± 11 nM | 729 ± 33 nM | 461 ± 17 nM | 362 ± 17 nM | 577 ± 21 nM | COc1cc(C(=O)/C=C/c2cn(C)c3ccccc23)cc2c1OC(C)(C)C=C2 [5b, (E)-1-(8-methoxy-2,2-dimethyl-2H-chromen-6-yl)-3-(1-methyl-1H-indol-3-yl)prop-2-en-1-one] |  |  |  |  |  | 
10 | 1020 ± 15 nM | 1100 ± 32 nM | 898 ± 9 nM | 642 ± 81 nM | 1080 ± 34 nM | COc1cc(C(=O)c2cccc3c2ccn3C)cc2c1OC(C)(C)C=C2 [19b, (8-methoxy-2,2-dimethyl-2H-chromen-6-yl)(1-methyl-1H-indol-4-yl)methanone] |  |  |  |  |  | 
11 | 121 ± 21 nM | 211 ± 12 nM | 441 ± 71 nM | 105 ± 11 nM | 209 ± 20 nM | COc1cc(C(=O)c2ccc3[nH]ccc3c2)cc2c1OC(C)(C)C=C2 [21a, (1H-indol-5-yl)(8-methoxy-2,2-dimethyl-2H-chromen-6-yl)methanone] |  |  |  |  |  | 
12 | 99 ± 31 nM | 106 ± 12 nM | 97 ± 31 nM | 82 ± 10 nM | 107 ± 6 nM | COc1cc(C(=O)c2ccc3c(ccn3C)c2)cc2c1OC(C)(C)C=C2 [21b, (8-methoxy-2,2-dimethyl-2H-chromen-6-yl)(1-methyl-1H-indol-5-yl)methanone] |  |  |  |  |  | 
